Positions count from the first letter of the chain named. Non-standard residues stand in square brackets, D forms with d. Residues, ends and D or L forms follow the SMILES beside them. No end group written: not given here. pS = N[C@@H](COP(=O)(O)O)C(=O)O
How the values were obtained:
TNPO3 WT = molecular target: T1, TNPO3 WT (Homo sapiens, UniProt Q9Y5L0); assay: ITC, ligand titrated into TNPO3 WT; format: binding; conditions: for ΔS: TNPO3 WT
T1 sequence (Q9Y5L0 1-923): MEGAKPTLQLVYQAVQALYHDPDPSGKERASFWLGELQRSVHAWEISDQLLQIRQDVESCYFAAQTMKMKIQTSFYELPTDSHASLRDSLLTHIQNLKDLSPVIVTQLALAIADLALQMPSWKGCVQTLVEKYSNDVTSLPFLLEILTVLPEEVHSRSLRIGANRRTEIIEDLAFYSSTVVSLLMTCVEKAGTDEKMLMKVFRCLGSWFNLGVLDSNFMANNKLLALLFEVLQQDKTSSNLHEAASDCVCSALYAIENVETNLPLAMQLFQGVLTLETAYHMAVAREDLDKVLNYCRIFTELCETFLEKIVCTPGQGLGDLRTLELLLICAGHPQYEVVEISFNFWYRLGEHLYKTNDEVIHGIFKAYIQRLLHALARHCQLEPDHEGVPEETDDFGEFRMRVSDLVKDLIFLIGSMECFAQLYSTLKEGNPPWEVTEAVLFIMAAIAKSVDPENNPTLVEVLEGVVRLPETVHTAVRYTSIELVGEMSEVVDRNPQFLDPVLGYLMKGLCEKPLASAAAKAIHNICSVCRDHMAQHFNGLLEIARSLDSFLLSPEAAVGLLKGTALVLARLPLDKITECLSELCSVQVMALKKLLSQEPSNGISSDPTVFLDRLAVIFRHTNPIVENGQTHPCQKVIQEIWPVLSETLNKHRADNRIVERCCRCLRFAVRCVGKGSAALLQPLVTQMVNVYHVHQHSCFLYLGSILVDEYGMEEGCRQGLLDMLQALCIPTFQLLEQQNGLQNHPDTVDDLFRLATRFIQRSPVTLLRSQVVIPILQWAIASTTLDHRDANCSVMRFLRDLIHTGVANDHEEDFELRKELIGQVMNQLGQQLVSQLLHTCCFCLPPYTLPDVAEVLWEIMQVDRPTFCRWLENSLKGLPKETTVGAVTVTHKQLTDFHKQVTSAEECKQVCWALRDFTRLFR
Method: (§1) ITC has been performed by a Malvern Microcal VP-ITC at 25 °C for all binding studies. Samples have been dissolved in Tris buffer containing 50 mM Tris–HCl, 150 mM NaCl, 2 mM TCEP, and 0.04% NaN3 at pH 7.5. Binding studies of CIRBP^RSY and SRSF1^RS were performed with TNPO3 WT, and studies of CIRBP (157–172) and its mutants/phosphorylations were performed with TNPO3 C511A, respectively. Injection has been carried out by a syringe containing ligand solution of 100 μM, which adds ligand step-wise into the cell containing 10 μM TNPO3 during 28 injections of 10 μL each. Data analysis, curve fitting, and calculation of Kd, ΔH, and ΔS have been carried out using Origin-based 7.0 software provided by the manufacturer. All replicated ITC data are shown in Supplementary Fig. 6 and Supplementary Table 1.

TNPO3 = assay: NMR binding studies with TNPO3 (1H-15N HSQC, 1H-13C HMQC, 1H 1D, STD); parameters: species or system human; conditions: for chemical shift perturbations of TNPO3 methyl groups upon ligand addition (1H,13C HMQC): 100 µM [IM-methyl 13C] labeled TNPO3, one stoichiometric equivalent of ligand, 298 K; for line broadening of peptide 1H signals upon addition of TNPO3 (1H NMR): 50 µM peptide, stoichiometric amount of TNPO3
Method: All NMR studies for TNPO3 were carried out using the wild type protein. Protein samples for ^1H-^13C HMQC were prepared at a concentration of 100 μM and equilibrated in a buffer containing 50 mM Tris–HCl, pH 6.7, 150 mM NaCl, 2 mM TCEP and 10% D2O. Spectral acquisitions for TNPO3 free and in complex with CIRBP^RSY and SRSF1^RS, respectively were performed at 298 K on a 700 MHz Bruker Avance III NMR spectrometer equipped with a TCI triple-resonance cryoprobe. The pulse program was sfhmqcf2gpph and the spectra were recorded with 32 scans, interscan delay of 1 s, 160 points in F1, 1024 points in F2, 5283.879 Hz spectral width in F1, and 11,160.714 Hz spectral width in F2. Spectra were processed using Topspin 4.1.3.
Spectral acquisitions for TNPO3 free and in complex with mCIRBP^RSY, pCIRBP^RSY, and pSRSF1^RS, respectively, were performed at 298 K on a 600 MHz Bruker Avance Neo NMR spectrometer equipped with a TXI 600S3 probehead. The pulse program was hmqcgpphwg and the spectra were recorded with 64 scans, interscan delay of 1 s, 200 points in F1, 1024 points in F2, 4545.455 Hz spectral width in F1, and 7812.500 Hz spectral width in F2. Spectra were processed using Topspin 4.3.0.
For ^1H-^15N HSQC spectra, protein samples were equilibrated in a buffer containing 50 mM Tris–HCl, pH 6.7, 150 mM NaCl, 2 mM TCEP, 0.04% NaN3, and 10% D2O (with additional 20 mM MgCl2 for CIRBP phosphorylation kinetics). Data were recorded at 298 K on the 600 MHz Bruker Avance Neo NMR spectrometer equipped with a TXI 600S3 probehead. The pulse program was hsqcetfpf3gpsi and was recorded with 8-16 scans, interscan delay of 1 s, 128 points in F1, 1024 points in F2, 1949.318 Hz spectral width in F1, and 9615.385 Hz spectral width in F2. Spectra were processed using Topspin 4.3.0.

TNPO3 C511A = molecular target: T2, TNPO3 C511A (Homo sapiens, UniProt Q9Y5L0, C511A); assay: ITC, ligand titrated into TNPO3 C511A; format: binding; conditions: for TNPO3 binding Kd, outcome in words: TNPO3 C511A, two replicates
T2 construct: full-length (FL) WT human TNPO3 were generated by synthesizing codon-optimized DNA fragments; His6 (N, cleaved yes); protein A (N, cleaved yes); made in house; host or cells: Escherichia coli BL21-(DE3) Star
T2 sequence (Q9Y5L0 1-923 C511A): T1 sequence (Q9Y5L0 1-923) with C511A
Method: as §1

[1] = 100 µM ligand into 10 µM TNPO3 C511A, 25 °C, 50 mM Tris–HCl, 150 mM NaCl, 2 mM TCEP, 0.04% NaN3, pH 7.5, error = SD of the fit

| Compound | Kd / affinity of binding to TNPO3 C511A (ITC), as given in Table 1 (TNPO3 C511A; [1]) | TNPO3 binding Kd, outcome in words (TNPO3 C511A) | line broadening of peptide 1H signals upon addition of TNPO3 (1H NMR) (TNPO3) | also measured |
| --- | --- | --- | --- | --- |
| C[C@H](NC(=O)[C@H](Cc1ccc(O)cc1)NC(=O)[C@H](CO)NC(=O)[C@H](CC(=O)O)NC(=O)[C@H](Cc1ccc(O)cc1)NC(=O)[C@H](CO)NC(=O)[C@H](CC(=O)O)NC(=O)[C@H](CCCNC(=N)N)NC(=O)[C@H](Cc1ccc(O)cc1)NC(=O)[C@H](CO)NC(=O)CNC(=O)CNC(=O)[C@H](CO)NC(=O)[C@H](CO)NC(=O)[C@H](CCCNC(=N)N)NC(=O)[C@H](CC(=O)O)NC(=O)[C@H](COP(=O)(O)O)NC(=O)[C@H](Cc1ccc(O)cc1)NC(=O)CNC(=O)CNC(=O)[C@H](COP(=O)(O)O)NC(=O)[C@H](CCC(N)=O)NC(=O)[C@H](COP(=O)(O)O)NC(=O)[C@H](CCCNC(=N)N)NC(=O)[C@H](CO)NC(=O)[C@H](CO)NC(=O)[C@H](Cc1ccc(O)cc1)NC(=O)[C@H](Cc1ccc(O)cc1)NC(=O)[C@H](CC(=O)O)NC(=O)[C@H](CCCNC(=N)N)NC(=O)[C@H](CO)NC(=O)CN)C(=O)N[C@H](C(=O)N[C@@H](Cc1c[nH]cn1)C(=O)N[C@@H](CC(N)=O)C(=O)N[C@@H](CCC(=O)O)C(=O)O)[C@@H](C)O [pCIRBP^RSY] (H-GSRDYYSSR[pS]Q[pS]GGY[pS]DRSSGGSYRDSYDSYATHNE-OH) |  |  |  | decrease of TNPO3 binding affinity upon SRPK1 phosphorylation (TNPO3 WT; ITC Kd 0.61 ± 0.10 versus 5.99 ± 0.96 µM): ten-fold; ΔS (TNPO3 WT; ITC, replicate 1 (rep1)): –112 cal/mol/deg; ΔS (TNPO3 WT; ITC, replicate 2 (rep2)): –50.6 cal/mol/deg; chemical shift perturbations of TNPO3 methyl groups upon ligand addition (1H,13C HMQC) (TNPO3; pH 6.7): shifted to comparable end points |
| DGPRSPSYGRSRSRSRS [SRSF1^RS, recombinant canonical SR/RS-NLS of human SRSF1 (195-211), unphosphorylated, reference compound] |  |  |  | Kd of binding to TNPO3 (ITC), as given in text and figures (TNPO3 WT; ITC, 100 µM ligand into 10 µM TNPO3 WT, 28 injections of 10 µL, 25 °C, 50 mM Tris–HCl, 150 mM NaCl, 2 mM TCEP, 0.04% NaN3, pH 7.5, error = SD of the fit): no binding was detectable; spectral changes of 15N-labeled cargo upon addition of TNPO3 (1H,15N HSQC) (TNPO3; 60 µM cargo, one stoichiometric equivalent of TNPO3, 298 K, pH 6.7): weak binding; chemical shift perturbations of TNPO3 methyl groups upon ligand addition (1H,13C HMQC) (TNPO3; pH 6.7): no binding was observed |
| GGSYADSYDSYATHNE [CIRBP (157-172) R161A, synthetic CIRBP (157-172) peptide with point mutation R161A] | No binding | No binding |  |  |
| GGSYRDSADSYATHNE [CIRBP (157-172) Y164A, synthetic CIRBP (157-172) peptide with point mutation Y164A] | No binding | No binding |  |  |
| GGSYRDSYDSAATHNE [CIRBP (157-172) Y167A, synthetic CIRBP (157-172) peptide with point mutation Y167A] | Low affinity | Low affinity |  |  |
| GGSYRDSYDSYATHNE [CIRBP (157-172) WT] |  |  |  | Kd (TNPO3 C511A; 100 µM ligand into 10 µM TNPO3 C511A, 25 °C, 50 mM Tris–HCl, 150 mM NaCl, 2 mM TCEP, 0.04% NaN3, pH 7.5, error = SD of the fit, read-out: Kd / affinity of binding to TNPO3 C511A (ITC), as given in Table 1): 5.78 ± 1.63 µM |
| GGSYRDSYDSpYATHNE [CIRBP (157-172) Y167pY, synthetic CIRBP (157-172) peptide with phosphorylated Y167] |  | Low affinity |  |  |
| GGSYRDSYDpSYATHNE [CIRBP (157-172) S166pS, synthetic CIRBP (157-172) peptide with phosphorylated S166] | decreased binding beyond being detectable or fittable | No binding |  |  |
| GGSYRDSpYDSYATHNE [CIRBP (157-172) Y164pY, synthetic CIRBP (157-172) peptide with phosphorylated Y164] | decreased binding beyond being detectable or fittable | No binding |  |  |
| PSGGSYRDSYESYGNS [RBMX/RMXL1, synthetic peptide RBMX (276–291), CIRBP-like motif] |  |  | broadened | change of peptide 1H 1D NMR signals with sub-stoichiometric TNPO3 (TNPO3; 100 µM RSY regions and 10 µM TNPO3 (peer review reply)): slight decrease of peptide signal intensity |
| SQVYRCGFQPFNQHLLPW [P5CS] |  |  | broadened |  |
| SRDRRFRGRYRSPYSG [RBM39] |  |  | broadened |  |
| YYDYEIERFWRGGQYENFRV [ZCH18] |  |  | broadened |  |

Reference: PMC12075686, “Structural basis of phosphorylation-independent nuclear import of CIRBP by TNPO3” (Nature Communications, 2025)
